Laboratory results as given in US8114406B2, “Peptides and their utility in modulation of behavior of cells expressing α3β1 integrins” (The United States of America as represented by the …, priority 1999, dated 2012).
Like-named read-outs stand apart in the source and are kept apart here. Where no end group is shown, it is not given here.

Legend:
OH1 SCLC cells = assay type: cell-based, human; settings: soluble
Procedure: Net, proliferation was determined by the CellTiter assay (Promega) and is presented as mean±SD, n=3. […] The cells were fixed and photographed using Nomarski optics. Bar=100 μm. […] Panel E: α3β1 Integrin ligands cooperate with EGF to inhibit OH1 cell proliferation. […] Net proliferation is presented as a percent of the -EGF control (mean±SD, n=3 for treated groups and n=6 for control groups).
Proteins and peptides were immobilized on Nunc Maxisorp 96 well plates by overnight incubation with the proteins or peptides dissolved in 50 μl of sterile Dulbecco's PBS. The supernatant fluid was removed, and the wells were incubated for 30 min. in DPBS containing 1% BSA. OH1 cells (1×10^4/well) were added in RPMI containing 15% FCS and incubated for 72 h at 37° in 5% CO2. For assessing inhibition by soluble proteins or peptides, OH1 cells were grown in suspension in Nunclon 96 well tissue culture plates using the same medium.

[1] = system: MDA-MB-435 breast carcinoma cells; assay: Inhibition of MDA-MB-435 cell adhesion to immobilized peptide 678 (microscopic adhesion assay); assay type: cell-based, human
Procedure: (§1) Adhesion assays of cells other than small cell lung carcinoma (SCLC)-Adhesion was measured on polystyrene or glass substrates coated with peptides or proteins as previously described (Guo et al., 1992). Peptides dissolved in PBS at 0.4 to 50 μM were incubated in polystyrene microliter plate wells overnight at 4° C. The wells were washed 3 times with distilled water. Adsorbed peptide was quantified using the BCA assay (Pierce Chemical) measuring absorbance at 570 and 630 nm as described by the supplier's protocol. The assay for adsorption was calibrated using purified peptide in solution as a standard. After blocking with 1% BSA in Dulbecco's PBS, adhesion assays were performed by adding cells suspended in DMEM (BAE cells) or medium 199 (human cells) containing 1 mg/ml BSA. Cell attachment and spreading was quantified microscopically.

BAE cells [2] = settings: added in solution
Procedure: (§5) Briefly, 100 μl of a 5×10^4 cell/ml suspension of BAE cells were seeded in triplicate into 96 well tissue culture plate in DMEM medium containing 1% FCS, 10 ng/ml of FGF2 and peptides at 1-40 μM concentrations. Cells were incubated for 72 h, and proliferation was measured using the Celltiter tetrazolium assay (Promega). […] Proliferation was determined at 72 h, and is presented as a percent of the control, mean±S.D., n=3 for experimental points and n=6 for control. […] FIG. 19E: HDME cell proliferation in MCDB growth medium with 5% FCS was determined in the presence of 10 ng/ml FGF2 and the indicated concentrations of TSP1 added in the medium (Δ) or immobilized on the substrate (●) or in wells coated with the indicated concentrations of peptide 678 (●).
(§6) Cell proliferation was measured using the Cell-Titer colorimetric assay (Promega) as previously described (Vogel et al., 1993). A 100 μl volume of BAE cell suspension at 50,000 cells/ml in DMEM containing 1% FBS and supplemented with 10 ng/ml FGF2 was plated in triplicate in 96 well tissue culture plates either in the presence of peptides in solution or in wells that were pre-coated with 100 μl of the peptides at 40° C. overnight and aspirated just before adding cells. Cells were grown for 72 hours at 37° C. in a humidified incubator with 5% CO2. […] HDME cell proliferation was measured in MCDB growth medium without heparin, VEGF, or FGF2.

[3] = system: chick chorioallantoic membrane (CAM) angiogenesis; assay: Chick chorioallantoic membrane (CAM) angiogenesis assay; assay type: in vivo, chicken; settings: for Angiogenic response (% inhibition): relative to control gels, mean ± SD; for activity in the CAM assay: in vivo
Procedure: Fertilized Leghorn chicken eggs were obtained from Ramona Duck farm (Westminster, Calif.). At day 3 of development, the embryos were placed on 100 mm petri dishes. Assays were performed as previously described (Iruela-Arispe et al., 1999). […] Peptides were filtered on Centricon P100 prior to their analysis on the CAM assays to eliminate traces of endotoxin. Pellets were applied to the outer ⅓ of the CAM, and the assay was performed for 24 h. Detection of capillary growth was done by injection of FITC-dextran in the bloodstream and observation of the pellets under a fluorescent inverted microscope. Positive controls (growth factors and vehicle), as well as negative controls (vehicle alone) were placed in the same CAM and used as reference of 100% stimulation or baseline inhibition (0%), and response to the peptides was determined according to these internal controls. Assays were performed in duplicate in each CAM and in four independent CAMs (total of 8 pellets).

BAE cells [4] = assay: Scratch wound repair of BAE cells; assay type: cell-based, bovine; settings: cells arrested using 5-fluorouracil; 24 h
Procedure: BAE cells were seeded at a density of 2×10^5 cells/well of 6 well tissue culture plates in complete growth medium supplemented with 10% FBS. After the cells formed a confluent cobblestone, cells were arrested using 10 μg/ml 5-fluorouracil for 48 h. Scrape wounds of 2 mm, width were made in the wells, and the cells were further incubated with medium containing 10% FBS, 10 μg/ml 5 fluorouracil and peptides 678, 709, or 690. Measurements of the distance between the wound margins were taken at 0 and 24 h, and the net migration is expressed as mean±SEM for triplicates.
The in vitro wound healing assay used was a slight modification of that described by Joyce et al. (Joyce et al., 1989). A confluent monolayer of BAE cells pretreated with 10 μg/ml 5-fluorouracil for […] were used in this assay. […] Mitosis of the BAE cells in the monolayers was inhibited by addition of 5-fluorouracil, so that the rate of wound closure was due solely to the migration of cells into the wound sites. The distances between the wound margins were measured as soon as the wound was made and 24 hours later using a grid incorporated into the eye piece of the microscope. All data represent the results obtained from three independent scratch wounds for each peptide tested.

MDA-MB-435 cells = assay: MDA-MB-435 cell chemotaxis in modified Boyden chambers; assay type: cell-based, human
Procedure: FIGS. 10A and 10B display the measurement of MDA-MB-435 cell chemotaxis. Panel A: Dose-dependence for stimulation of MDA-MB-435 cell motility by peptide 678 added to the lower well of a modified Boyden chamber. Cells migrated to the lower surface of an 8 μm pore polycarbonate filter were quantified microscopically after 7 h, mean±SD, n=3 for a representative experiment. […] Chemotaxis of untreated cells (striped bars) or cells treated with 10 nM IGF1 in the upper chamber (solid bars) was determined after 7 h and is presented as mean±S.D., n=3.

BAE cells [5] = system: BAE cells
Procedure: Direct adhesion of BAE cells to the adsorbed peptides or uncoated substrate (control) are presented as mean±SD, n=3. […] Two flasks of BAE cells were grown to confluence. One flask was harvested and replated in fresh medium at 25% confluency. Fresh medium was added at the same time to the second flask. After 16 h, cells from both flasks were dissociated using EDTA and adhesion was measured on substrates coated with 40 μg/ml TSP1, 10 μg/ml vitronectin, 20 μg/ml plasma fibronectin, or 5 μg/ml type I collagen. The percent spread cells after 60 min is presented as mean±SD, n=3 for a representative experiment.

HDME cells [6] = assay: HDME cell spreading on coated substrates; assay type: cell-based, human
Procedure: Spreading was determined microscopically for cells with no additions, in the presence of 10 μM peptide 678, or in the presence of 30 μM of the control peptide 690. Results are presented as mean±SD, n=3. […] The percent spread cells was determined at 60 min.
as §1

HUVEC = HUVEC spreading on coated substrates; assay type: cell-based, human; settings: data not shown
Procedure: FIGS. 14A, 14B and 14C display α3β1 and αvβ3 integrin-mediated spreading of endothelial cells on thrombospondin-1. […] Results are expressed as percent of the response for untreated cells, mean±S.D., n=3.
as §1

HDME cells [7] = assay: HDME cell proliferation; assay type: cell-based, human
Procedure: as §5, §6

H69 SCLC cells = assay: SCLC cell adhesion to extracellular matrix proteins, H69; assay type: cell-based, human
Procedure: (§2) For adhesion assays of SCLC, these cells were washed once with RPMI 1640 and centrifuged at 400×g for 3 min. The pellet was suspended in 2.5 mM EDTA in PBS, pH 7.4 and incubated for 10 min at 37° C. After trituration three times and centrifugation, the cells were resuspended in RPMI 1640 containing 0.1% BSA (Sigma Co. St Louis, Mo.).
(§3) Adhesion of SCLC cells to extracellular matrix proteins. Extracellular matrix proteins or peptides in Dulbecco's PBS were adsorbed onto polystyrene by incubating overnight at 4° C. […] The supernatant fluid was removed, and the dishes were incubated with Tris-gelatin (ICN) (50 mM Tris-HCl, 110 mM NaCl, 5 mM CaCl2, 0.1 mM phenylmethylsulfonyl fluoride, 0.2% gelatin and 0.02% NaN3, pH 7.8) or Dulbeccos PBS with 1% BSA, as indicated, for 30 min to minimize nonspecific adhesion. The disks were washed twice with cold PBS, pH 7.2 and overlayed with dissociated SCLC cells prepared as described above at a density of 2.5×10^5/cm^2.
(§4) For inhibition studies with SCLC cells, inhibitors or antibodies were added and incubated with SCLC cells at the indicated concentrations. After incubation for 60-90 min at 37° C., the disks were washed by dipping six times in PBS, pH 7.2, fixed with 1% glutaraldehyde in PBS, pH 7.2, and stained with Diff-Quik. Attached cells were counted microscopically.

H345 SCLC cells = assay: SCLC cell adhesion to extracellular matrix proteins, H345; assay type: cell-based, human
Procedure: as §2, §3, §4

N417 SCLC cells = assay: SCLC cell adhesion to extracellular matrix proteins, N417; assay type: cell-based, human
Procedure: as §2, §3, §4

[8] = Table 3, 5 μM peptide 678, read-out: IC50 (μM), inhibition of MDA-MB-435 cell adhesion to immobilized peptide 678
[9] = microscopic adhesion assay, polystyrene coated with 5 μM peptide 678, peptides in solution, read-out: Inhibition of peptide 678 (IC50)
[10] = cells harvested from a confluent monolayer

FQGVLQAVRFVF [Peptide 686]
inhibition of OH1 cell proliferation (OH1 SCLC cells): inactive | IC50 [1, 8]: > 300 µM | IC50 [1, 9]: > 300 µM | inhibition of BAE cell proliferation (BAE cells [2]): inactive | Angiogenic response (% inhibition) ([3]; 5 μM peptide): 3 ± 4% | Angiogenic response (% inhibition) ([3]; 10 μM peptide): 4 ± 6% | Angiogenic response (% inhibition) ([3]; 20 μM peptide): 15 ± 7% | activity in the CAM assay [3]: reduced activity

FQGVLQNVAFVF [Peptide 690]
inhibition of BAE cell migration into the wound (BAE cells [4]): did not inhibit | IC50 [1, 8]: > 300 µM | IC50 [1, 9]: > 300 µM | stimulation of chemotaxis (MDA-MB-435 cells): inactive | Angiogenic response (% inhibition) ([3]; 5 μM peptide): 3 ± 3% | Angiogenic response (% inhibition) ([3]; 10 μM peptide): 5 ± 3% | Angiogenic response (% inhibition) ([3]; 20 μM peptide): 2 ± 5% | activity in the CAM assay [3]: inactive | inhibition of density-dependent BAE spreading on intact TSP1 and the TSP1 peptide (BAE cells [5]; peptide added in solution): not significantly inhibited | endothelial cell attachment on immobilized peptide (BAE cells [5]; peptides adsorbed at 10 μM (FIG. 11A)): not

TSP1: calcium replete thrombospondin-1 purified from human platelets
percent spread HDME cells on immobilized substrate (HDME cells [6]; cells from sparse culture): 29% | percent spread HDME cells on immobilized substrate (HDME cells [6]; [10]): 6% | percent spread HUVEC on immobilized substrate (HUVEC; confluent cells): 41±5% | percent spread HUVEC on immobilized substrate (HUVEC; sparse cultures): 46±7% | HDME cell proliferation after plating on immobilized substance (HDME cells [7]): enhancement | SCLC cell adhesion (H69 SCLC cells; 12.5 μg/ml): 46 ± 8 cells/mm2 | SCLC cell adhesion (H69 SCLC cells; 25 μg/ml): 94 ± 6 cells/mm2 | SCLC cell adhesion (H69 SCLC cells; 50 μg/ml): 110 ± 14 cells/mm2 | SCLC cell adhesion (H69 SCLC cells; substrate coated at 6.2 μg/ml, mean ± S.D., n = 3): 6 ± 1 cells/mm2 | SCLC cell adhesion (H345 SCLC cells; 6.2 μg/ml): 1 ± 1 cells/mm2 | SCLC cell adhesion (H345 SCLC cells; 12.5 μg/ml): 7 ± 1 cells/mm2 | SCLC cell adhesion (H345 SCLC cells; 25 μg/ml): 124 ± 17 cells/mm2 | SCLC cell adhesion (H345 SCLC cells; 50 μg/ml): 165 ± 6 cells/mm2 | SCLC cell adhesion (N417 SCLC cells; 6.2 μg/ml): 15 ± 2 cells/mm2 | SCLC cell adhesion (N417 SCLC cells; 12.5 μg/ml): 30 ± 4 cells/mm2 | SCLC cell adhesion (N417 SCLC cells; 25 μg/ml): 48 ± 4 cells/mm2 | SCLC cell adhesion (N417 SCLC cells; 50 μg/ml): 55 ± 10 cells/mm2 | percent spread BAE cells on substrate (BAE cells [5]; [10]): less than 10%

ri-FQGVLQNVRFVF [Peptide 709]
inhibition of BAE cell migration into the wound (BAE cells [4]): dose-dependent inhibitor | Angiogenic response (% inhibition) ([3]; 5 μM peptide): 5 ± 4% | Angiogenic response (% inhibition) ([3]; 10 μM peptide): 25 ± 13% | Angiogenic response (% inhibition) ([3]; 20 μM peptide): 39 ± 13% | activity in the CAM assay [3]: enhanced activity
